# Measurements as given in ChEMBL document CHEMBL3046401, “Synthesis, X-ray structure and antiproliferative activity of 3-benzylthio-4-propargylselenoquinoline” (2010).
# What was measured:
# Type in all cases: functional
# Conditions in all cases: read-out: ID50 (the source's name)
# [1] = Antiproliferative activity against Homo sapiens (human) HCV29T cells by SRB assay
# [2] = Antiproliferative activity against Homo sapiens (human) SW707 cells by SRB assay
# A549 = test: Antiproliferative activity against Homo sapiens (human) A549 cells by SRB assay
# T47D = test: Antiproliferative activity against Homo sapiens (human) T47D cells by SRB assay
SMILES,IC50 [1] [µg/mL],IC50 [2] [µg/mL],IC50 (A549) [µg/mL],IC50 (T47D) [µg/mL]
C#CC[Se]c1c(SCc2ccccc2)cnc2ccccc12 [3-BENZYLTHIO-4-PROPARGYLSELENOQUINOLINE],> 100,> 100,> 100,> 100
C#CC[Se]c1c(SC)cnc2ccccc12 [3-METHYLTHIO-4-PROPARGYLSELENOQUINOLINE],1.8,0.6,–,2.5
C#CCSc1c(SC)cnc2ccccc12 [3-METHYLTHIO-4-PROPARGYLTHIOQUINOLINE],5.7,17.6,6.8,18.4
